Measurements as given in patent US9725462B2, “Pyridopyrimidine derivatives as protein kinase inhibitors” (Merck Patent GmbH, priority 2012, dated 2017).
Structures can show the parent of a compound that is named as a salt.

Target: T1, SYK (Homo sapiens, UniProt P43405)
T1 construct: 2.5 nM SYK, 400 nM Biotin-Aha-Aha-KEDPDYEWPSAKK
Assay: SYK Flash Plate Assay (enzyme assay)
Type: biochemical
Settings: Syk inhibition
Excerpt: The following abbreviations refer respectively to the definitions below: • aq (aqueous), h (hour), g (gram), L (liter), mg (milligram), MHz (Megahertz), min. (minute), mm (millimeter), mmol (millimole), mM (millimolar), m.p. (melting point), eq (equivalent), mL (milliliter), L (microliter), ACN (acetonitrile), AcOH (acetic acid), CDCl3 (deuterated chloroform), CD3OD (deuterated methanol), CH3CN (acetonitrile), c-hex (cyclohexane), DCC (dicyclohexyl carbodiimide), DCM (dichloromethane), DIC (diisopropyl carbodiimide), DIEA (diisopropylethyl-amine), DMF (dimethylformamide), DMSO (dimethylsulfoxide), DMSO-d6 (deuterated dimethylsulfoxide), EDC (1-(3-dimethyl-amino-propyl)-3-ethylcarbodiimide), ESI (Electro-spray ionization), EtOAc (ethyl acetate), Et2O (diethyl ether), EtOH (ethanol), HATU (dimethylamino-([1,2,3]triazolo[4,5-b]pyridin-3-yloxy)-methylene]-dimethyl-ammonium hexafluorophosphate), HPLC (High Performance Liquid Chromatography), i-PrOH (2-propanol), K2CO3 (potassium carbonate), LC (Liquid Chromatography), MeOH (methanol), MgSO4 (magnesium sulfate), MS (mass spectrometry), MTBE (Methyl tert-butyl ether), NaHCO3 (sodium bicarbonate), NaBH4 (sodium borohydride), NMM (N-methyl morpholine), NMR (Nuclear Magnetic Resonance), PyBOP (benzotriazole-1-yl-oxy-tris-pyrrolidino-phosphonium hexafluorophosphate), RT (room temperature), Rt (retention time), SPE (solid phase extraction), TBTU (2-(1-H-benzotriazole-1-yl)-1,1,3,3-tetramethyluromium tetrafluoro borate), TEA (triethylamine), TFA (trifluoroacetic acid), THF (tetrahydrofuran), TLC (Thin Layer Chromatography), UV (Ultraviolet). Description of the In Vitro Assays SYK Flash Plate Assay
The kinase assay is performed either as 384-well Flashplate assay (for e.g. Topcount measurement) or as 384-well Image-Flashplate assay (for LEADseeker measurement).
2.5 nM SYK, 400 nM Biotin-Aha-Aha-KEDPDYEWPSAKK
and 10 μM ATP (spiked with 0.3 μCi 33P-ATP/well) are incubated in a total volume of 50 μl (60 mM Hepes, 10 mM MgCl2, 1.2 mM Dithiothreitol, 0.02% Brij35, 0.1% BSA, pH 7.5) with or without test compound for 1 hours at 30° C. The reaction is stopped with 25 μl 200 mM EDTA. After 30 Min at 30° C. the liquid is removed and each well washed thrice with 100 μl 0.9% sodium chloride solution. Non-specific reaction is determined in presence of 0.1 μM Staurosporine. Radioactivity is measured with Topcount (when using Flashplates) or with LEADseeker (when using Image-Flashplates) respectively. Results (e.g. IC50-values) are calculated with program tools provided by the IT-department (e.g. Symyx Assay Explorer, Genedata Screener). In Vivo Assays CIA

Row | SMILES | IC50 [nM]
1 | Cn1cc(-c2cnc(C(F)F)c3cnc(N[C@@H]4CCCC[C@@H]4N)nc23)cn1 [Compound A91, (1R,2S)—N-[5-difluoromethyl-8-(1-methyl-1H-pyrazol-4-yl)-pyrido-[4,3-d]pyrimidin-2-yl]-cyclohexane-1,2-diamine] | 100 to 1000
2 | N[C@@H]1CCCC[C@@H]1Nc1ncc2cncc(-c3c[nH]c4ccc(F)cc34)c2n1 (stereo in doubt) [Compound A46, (1S,2R)-N-[8-(5-Fluoro-1H-indol-3-yl)-pyrido[4,3-d]pyrimidin-2-yl]-cyclohexane-1,2-diamine] | < 100
3 | Nc1ncc(-c2c[nH]c3ccccc23)c2nc(N[C@H]3CCCC[C@H]3N)ncc12 (relative stereo) [Compound A24, N2-(cis-2-Amino-cyclohexyl)-8-(1H-indol-3-yl)-pyrido[4,3-d]pyrimidine-2,5-diamine] | < 100
4 | COC[C@H](N)CNc1ncc2cncc(-c3c[nH]c4cc(C(F)(F)F)ccc34)c2n1 [Compound A61, (2R)-3-Methoxy-N1-[8-[6-(trifluoromethyl)-1H-indol-3-yl]pyrido[4,3-d]pyrimidin-2-yl]propane-1,2-diamine] | 1000 to 50000
5 | Nc1ncc(-c2cc3ccccc3[nH]2)c2nc(N[C@@H]3CCCC[C@@H]3N)ncc12 (relative stereo) [Compound A10, N2-(cis-2-Amino-cyclohexyl)-8-(1H-indol-2-yl)-pyrido[4,3-d]pyrimidine-2,5-diamine] | < 100
6 | Cn1cc(-c2cnc(N)c3cnc(NCCN)nc23)cn1 [Compound A6, N2-(2-Amino-ethyl)-8-(1-methyl-1H-pyrazol-4-yl)-pyrido[4,3-d]-pyrimidine-2,5-diamine] | 1000 to 50000
7 | N[C@@H]1CCCC[C@@H]1Nc1ncc2cncc(-c3c[nH]c4cc(C(F)(F)F)ccc34)c2n1 (stereo in doubt) [Compound A41, (1S,2R)-N-[8-(6-Trifluoromethyl-1H-indol-3-yl)-pyrido[4,3-d]pyrimidin-2-yl]-cyclohexane-1,2-diamine] | < 100
8 | Cc1cccc(-c2cnc(N)c3cnc(N[C@H]4CCCC[C@H]4N)nc23)c1 (single isomer, unassigned) [Compound A21, N2-((cis)-2-Amino-cyclohexyl)-8-m-tolyl-pyrido[4,3-d]pyrimidine-2,5-diamine] | 1000 to 50000
9 | Cc1ncc(-c2c[nH]c3cc(C(F)(F)F)ccc23)c2nc(N[C@@H]3CCCC[C@@H]3N)ncc12 (single isomer, unassigned) [Compound A88] | 1000 to 50000
10 | N#Cc1cccc2c(-c3cncc4cnc(N[C@@H]5CCCC[C@@H]5N)nc34)c[nH]c12 [Compound A72, 3-[2-((1R,2S)-2-amino-cyclohexylamino)-pyrido[4,3-d]pyrimidin-8-yl]-1H-indole-7-carbonitrile] | < 100
11 | N#Cc1cnc(N)c2cnc(N[C@H]3CCCC[C@H]3N)nc12 (relative stereo) [Compound A9, 5-Amino-2-(cis2-amino-cyclohexylamino)-pyrido[4,3-d]pyrimidine-8-carbonitrile] | 1000 to 50000
12 | COc1ccc2c(-c3cncc4cnc(N[C@H]5CCCC[C@H]5N)nc34)c[nH]c2c1 (stereo in doubt) [Compound A40, (1S,2R)-N-[8-(6-Methoxy-1H-indol-3-yl)-pyrido[4,3-d]pyrimidin-2-yl]-cyclohexane-1,2-diamine] | < 100
13 | COC[C@H](N)CNc1ncc2cncc(-c3c[nH]c4cc(C#N)ccc34)c2n1 [Compound A67, 3-[2-((R)-2-Amino-3-methoxy-propylamino)-pyrido[4,3-d]pyrimidin-8-yl]-1H-indole-6-carbonitrile] | 1000 to 50000
14 | N[C@@H]1CCCC[C@@H]1Nc1ncc2cncc(-c3cc4n(n3)CCCC4)c2n1 (stereo in doubt) [Compound A33, (1S,2R)-N-[8-(4,5,6,7-Tetrahydro-pyrazolo[1,5-a]pyridin-2-yl)-pyrido[4,3-d]pyrimidin-2-yl]-cyclohexane-1,2-diamine] | 1000 to 50000
15 | CC(C)Cn1cc(-c2cnc(N)c3cnc(N[C@H]4CCCC[C@H]4N)nc23)cn1 (relative stereo) [Compound A8, N2-(cis-2-Amino-cyclohexyl)-8-(1-isobutyl-1H-pyrazol-4-yl)-pyrido[4,3-d]pyrimidine-2,5-diamine] | 100 to 1000
16 | Nc1ncc(-c2cccc(-n3nccn3)c2)c2nc(N[C@H]3CCCC[C@H]3N)ncc12 (relative stereo) [Compound A3, N2-(cis-2-Amino-cyclohexyl)-8-(3-[1,2,3]triazol-2-yl-phenyl)-pyrido[4,3-d]pyrimidine-2,5-diamine] | 100 to 1000
17 | COc1ccc2[nH]c(-c3cnc(N)c4cnc(N[C@@H]5CCCC[C@@H]5N)nc34)cc2c1 (relative stereo) [Compound A19, N2-(cis-2-Amino-cyclohexyl)-8-(5-methoxy-1H-indol-2-yl)-pyrido[4,3-d]pyrimidine-2,5-diamine] | < 100
18 | N#Cc1ccc2[nH]c(-c3cnc(N)c4cnc(N[C@@H]5CCCC[C@@H]5N)nc34)cc2c1 (relative stereo) [Compound A23, 2-[5-Amino-2-((cis)-2-amino-cyclohexylamino)-pyrido[4,3-d]-pyrimidin-8-yl]-1H-indole-5-carbonitrile] | 100 to 1000
19 | Cn1cc(-c2cnc(N)c3cnc(N4CCC(CO)CC4)nc23)cn1 [Compound A5, {1-[5-Amino-8-(1-methyl-1H-pyrazol-4-yl)-pyrido[4,3-d]pyrimidin-2-yl]-piperidin-4-yl}-methanol] | 1000 to 50000
20 | Cc1cccc(-c2cncc3cnc(N[C@H]4CCCC[C@H]4N)nc23)c1 (stereo in doubt) [Compound A31, (1S,2R)-N-(8-m-Tolyl-pyrido[4,3-d]pyrimidin-2-yl)-cyclohexane-1,2-diamine] | 100 to 1000
21 | COC[C@H](N)CNc1ncc2cncc(-c3cccc(C)c3)c2n1 [Compound A30, (R)-3-Methoxy-N1-(8-m-tolyl-pyrido[4,3-d]pyrimidin-2-yl)-propane-1,2-diamine] | 1000 to 50000
22 | NC1CCOCC1Nc1ncc2cncc(-c3c[nH]c4cc(C(F)(F)F)ccc34)c2n1 (stereo not drawn) [Compound A49, cis-N3-[8-[6-(trifluoromethyl)-1H-indol-3-yl]pyrido[4,3-d]pyrimidin-2-yl]tetrahydropyran-3,4-diamine] | < 100
23 | Nc1ncc(-c2ccccc2)c2nc(N[C@@H]3CCCC[C@@H]3N)ncc12 [Compound A17, N2-((1R,2S)-2-Amino-cyclohexyl)-8-phenyl-pyrido[4,3-d]-pyrimidine-2,5-diamine] | 100 to 1000
24 | N#Cc1ccc2c(-c3cncc4cnc(N[C@@H]5CCCC[C@@H]5N)nc34)c[nH]c2c1 [Compound A45, 3-[2-((1R,2S)-2-Amino-cyclohexylamino)-pyrido[4,3-d]pyrimidin-8-yl]-1H-indole-6-carbonitrile] | < 100
25 | Cn1cc(-c2cncc3cnc(N[C@@H]4CCCC[C@@H]4N)nc23)cn1 [Compound A2, (1R,2S)—N-[8-(1-Methyl-1H-pyrazol-4-yl)-pyrido[4,3-d]pyrimidin-2-yl]-cyclohexane-1,2-diamine hydrochloride] | 100 to 1000
26 | Cn1cc(-c2cnc(N)c3cnc(N[C@H]4CCCC[C@H]4N)nc23)cn1 (single isomer, unassigned) [Compound A4, N2-((cis)-2-Amino-cyclohexyl)-8-(1-methyl-1H-pyrazol-4-yl)-pyrido[4,3-d]pyrimidine-2,5-diamine] | 1000 to 50000
